Data taken from US7271161B2, “Platinum complexes as antitumor agents in combination with biochemical modulation” (Board of Regents, the University of Texas System, priority 2002, dated 2007).
Like-named read-outs stand apart in the source and are kept apart here.

Experiments:
[1] = tested on: Human A2780 cell line; experiment: MTT cytotoxicity assay, cisplatin-sensitive ovarian A2780 cells, with or without BSO; type: cell-based; details: for IC50: Table 4
From the text: (§1) The ovarian A2780 and 2008 cell lines are sensitive to cisplatin, while the corresponding 2780CP and 2008/C13* cell lines were selected for resistance following in vitro exposure to cisplatin. The SKOV-3 cell line was established from a patient who was resistant to cisplatin therapy and is considered a model of cisplatin resistance. The A2780 and 2780CP cells have wild-type p53 function, while SKOV-3 is devoid of p53 function. The p53 status for the 2008 and 2008/C131 cells is presently not known.
(§2) Procedure for Cytotoxic Evaluation. All cell lines are maintained in RPMI 1640 medium supplemented with 10% fetal bovine serum, 50 μg/ml penicillin, 50 μg/ml streptomycin, 100 μg/ml neomycin and 0.3 mg/ml L-glutamine. The ovarian lines also require 2 μg/ml insulin for maximal growth. Cells are grown as monolayers at 37° C. in a humidified atmosphere of 5% CO2:95% air. Cytotoxicity is determined by a standard MTT assay. Briefly, the exponentially-growing cells are trypsinized to dislodge them before use. After diluting the tumor cells to appropriate concentrations (2,000-30,000 cells/ml), 100 μl aliquots of the cell suspensions are added to each well of a 96-well microtiter plate. The cells are allowed to attach overnight, and then exposed for 24 hr to BSO at a concentration that is equal to or less than maximally tolerated concentration (MTC). At 22 hr after addition of BSO, the platinum complex is added, and 2 hr later the cells are washed and reincubated. After another 5 days, when control cells are in an exponential phase of growth, 50 μl of an MTT solution (3 mg/ml) is added to each well. Following a 3-hr incubation, the medium is removed and replaced by 50 μl of 100% DMSO to dissolve MTT formazan crystals. Plates are agitated on a plate shaker for 5 min, and absorbances are measured at 570 nm in a multiwell scanning spectrophotometer.
(§3) IC50 values, defined as the drug concentration (μM) inhibiting cell growth by 50% compared to control wells, are determined by fitting a sigmoidal curve to the data using a computer program. Resistance factor is calculated as a ratio of the IC50 against resistant cell line to the IC50 against parent cell line. The dose modification factor (DMF) is derived from a ratio of IC50 without BSO to that with BSO.

[2] = tested on: Human 2780CP cell line; experiment: MTT cytotoxicity assay, cisplatin-resistant ovarian 2780CP cells, with or without BSO; type: cell-based; design: key to DMF vs. 2780CP Control (Without BSO) / DMF Control / DMF +BSO (MTC): DMF = IC50 without BSO / IC50 with BSO; details: for IC50: Table 4
From the text: as §1, §2, §3

[3] = tested on: 2008 cell line; experiment: MTT cytotoxicity assay, cisplatin-sensitive ovarian 2008 cells, with or without BSO; type: cell-based, Human; details: for IC50: Table 4
From the text: as §1, §2, §3

[4] = tested on: 2008/C13* cell line; experiment: MTT cytotoxicity assay, cisplatin-resistant ovarian 2008/C13* cells, with or without BSO; type: cell-based, Human; details: for IC50: Table 4
From the text: as §1, §2, §3

[5] = tested on: SKOV-3 cell line; experiment: MTT cytotoxicity assay, cisplatin-resistant SKOV-3 cells, with or without BSO; type: cell-based, Human; details: for IC50: Table 4
From the text: as §1, §2, §3

[6] = tested on: sensitive and resistant cells; details: cited from earlier work
[7] = tested on: human melanoma cell line (RPMI 8322); details: cited from earlier work
[8] = target: T1, γ-Glutamylcysteine synthetase (Rattus norvegicus, UniProt P19468); details: cited from earlier work
T1 sequence (P19468 1-637): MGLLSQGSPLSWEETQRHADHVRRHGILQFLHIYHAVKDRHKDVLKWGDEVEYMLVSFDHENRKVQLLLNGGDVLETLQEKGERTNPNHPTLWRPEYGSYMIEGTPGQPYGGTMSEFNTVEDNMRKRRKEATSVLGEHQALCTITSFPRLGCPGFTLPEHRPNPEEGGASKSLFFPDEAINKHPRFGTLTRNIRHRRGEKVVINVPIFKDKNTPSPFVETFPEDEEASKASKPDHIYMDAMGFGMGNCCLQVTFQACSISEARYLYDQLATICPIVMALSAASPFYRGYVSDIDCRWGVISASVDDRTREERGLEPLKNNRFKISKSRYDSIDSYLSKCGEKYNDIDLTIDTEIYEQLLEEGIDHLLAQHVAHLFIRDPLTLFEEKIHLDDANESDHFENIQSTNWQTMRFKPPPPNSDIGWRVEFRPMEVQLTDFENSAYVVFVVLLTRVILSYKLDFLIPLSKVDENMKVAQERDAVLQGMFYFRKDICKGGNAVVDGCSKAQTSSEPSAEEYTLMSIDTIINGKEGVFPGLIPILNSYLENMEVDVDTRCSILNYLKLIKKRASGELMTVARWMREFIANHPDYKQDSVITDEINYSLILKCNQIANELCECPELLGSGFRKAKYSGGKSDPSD

With `N.N.[Cl][Pt][Cl]` [Complex 1, cis-diamminedichloroplatinum, reference compound] the IC50 ([1]; A2780, BSO at MTC, read-out: IC50 +BSO (MTC)) was 4.25 µM, the IC50 ([1]; A2780, absence of BSO, read-out: IC50 Control) was 6.75 µM and the “DMF +BSO (MTC)” value ([1]; Table 5, A2780, BSO at MTC) was 1.59. The “DMF Control” value ([1]; Table 5, A2780, absence of BSO (reference)) was 1.00, the “RF Control” value ([1]; Table 6, A2780 parent line without BSO (reference)) was 1.00 and the “Resistance Factor vs. 2780CP +10 μM BSO” value ([2]; IC50 2780CP with 10 μM BSO / IC50 A2780 without BSO) was 12.1. For the same compound, the “Resistance Factor vs. 2780CP +3 mM BSO (MTC)” value ([2]; IC50 2780CP with 3 mM BSO (MTC) / IC50 A2780 without BSO) was 8.63, the “Resistance Factor vs. 2780CP Control (Without BSO)” value ([2]; IC50 2780CP without BSO / IC50 A2780 without BSO) was 14.9 and the IC50 ([2]; 2780CP, BSO at MTC, read-out: IC50 +BSO (MTC)) was 58.3 µM. The IC50 ([2]; 2780CP, absence of BSO, read-out: IC50 Control) was 101 µM, the “DMF +BSO (MTC)” value ([2]; Table 5, 2780CP, BSO at MTC) was 1.73 and the “DMF Control” value ([2]; Table 5, 2780CP, absence of BSO (reference)) was 1.00. For the same compound, the “RF +BSO (MTC)” value ([2]; Table 6, 2780CP with BSO vs. A2780 without BSO) was 8.63, the “RF Control” value ([2]; Table 6, 2780CP without BSO vs. A2780 without BSO) was 14.9 and the “increase in antitumor activity when combined with BSO” value ([2]; in both sensitive and resistant models (Table 2: A2780 and 2780CP)) was “less than 2 fold”. The IC50 ([3]; 2008, BSO at MTC, read-out: IC50 +BSO (MTC)) was 0.77 µM, the IC50 ([3]; 2008, absence of BSO, read-out: IC50 Control) was 1.42 µM and the “DMF +BSO (MTC)” value ([3]; Table 5, 2008, BSO at MTC) was 1.84. The “DMF Control” value ([3]; Table 5, 2008, absence of BSO (reference)) was 1.00, the “RF Control” value ([3]; Table 6, 2008 parent line without BSO (reference)) was 1.00 and the IC50 ([4]; 2008/C13*, BSO at MTC, read-out: IC50 +BSO (MTC)) was 10.4 µM. For the same compound, the IC50 ([4]; 2008/C13*, absence of BSO, read-out: IC50 Control) was 20.8 µM, the “DMF +BSO (MTC)” value ([4]; Table 5, 2008/C13*, BSO at MTC) was 2.00 and the “DMF Control” value ([4]; Table 5, 2008/C13*, absence of BSO (reference)) was 1.00. For the same compound, the “RF +BSO (MTC)” value ([4]; Table 6, 2008/C13* with BSO vs. 2008 without BSO) was 7.32, the “RF Control” value ([4]; Table 6, 2008/C13* without BSO vs. 2008 without BSO) was 14.6 and the IC50 ([5]; SKOV-3, BSO at sub-MTC, read-out: IC50 +BSO (MTC)) was 21.1 µM. The IC50 ([5]; SKOV-3, absence of BSO, read-out: IC50 Control) was 33 µM, the “DMF +BSO (MTC)” value ([5]; Table 5, SKOV-3, BSO at sub-MTC) was 1.56 and the “DMF Control” value ([5]; Table 5, SKOV-3, absence of BSO (reference)) was 1.00. For the same compound, the “RF +BSO (MTC)” value ([5]; Table 6, SKOV-3 with BSO vs. 2008 without BSO) was 14.9, the “RF Control” value ([5]; Table 6, SKOV-3 without BSO vs. 2008 without BSO) was 23.2 and the “increase in antitumor activity in combination with BSO, isolated publications” value ([6]; isolated publications) was “up to 4 fold”. For the same compound, the “increase in antitumor activity in combination with BSO, usual” value ([6]; usually) was “under 2 fold” and the “dose modification factor (DMF), potentiation by BSO” value ([7]; BSO pretreatment, RPMI 8322) was 1.5.

In the case of `CCCCS(=N)(=O)CCC(N)C(=O)O` (centres unmarked) [S-butyl homocysteine sulfoximine], the “inhibition effectiveness relative to methionine sulfoximine” value ([8]; vs. methionine sulfoximine) is given as “at least 100 times” and the “inhibition effectiveness relative to prothionine sulfoximine” value ([8]; vs. prothionine sulfoximine) is given as “about 20 times”.

In the case of `N[C@@H](Cc1ccc(N(CCCl)CCCl)cc1)C(=O)O` [melphalan], the “effect of BSO pretreatment on cytotoxicity” value [7] is given as “enhanced cytotoxicity”.
